Source: publication PMC6372246 (ACS Omega, 2019)
Where “and” joins values, the source holds several entries; their conditions need not be identical. Identical values can stand only once.

Columns and labels:
GRPR [1] = target: GRPR (Homo sapiens, UniProt P30550); assay: Fluorometric calcium release assay; format: cell-based; details: PC-3 cells, 50 nM
GRPR [2] = details: read-out: Ki (reported value); murine Swiss 3T3 cells; cited from earlier work

Sequence of GRPR (Homo sapiens, UniProt P30550) (P30550 whole entry): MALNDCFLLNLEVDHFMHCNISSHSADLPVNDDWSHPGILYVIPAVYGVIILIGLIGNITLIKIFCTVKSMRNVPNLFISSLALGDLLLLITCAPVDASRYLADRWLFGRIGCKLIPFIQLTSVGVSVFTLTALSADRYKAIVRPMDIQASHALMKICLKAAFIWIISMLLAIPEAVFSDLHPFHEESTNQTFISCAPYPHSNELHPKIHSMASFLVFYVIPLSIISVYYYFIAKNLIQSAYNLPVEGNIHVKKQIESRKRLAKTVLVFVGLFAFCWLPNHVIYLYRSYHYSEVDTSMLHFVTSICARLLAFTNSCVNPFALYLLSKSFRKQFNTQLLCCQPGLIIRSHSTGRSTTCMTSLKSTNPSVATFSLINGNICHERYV

Question: Which Intracellular calcium release (GRPR [1]) does the source give for `Nc1ncnc2c1ncn2[C@@H]1O[C@H](COP(=O)(O)OP(=O)(O)OP(=O)(O)O)[C@@H](O)[C@H]1O` [ATP, adenosine triphosphate] here?
Answer: Its Intracellular calcium release is 511 ± 45.5 RFUs and > 500 RFUs.

Question: For “D-Phe-Gln-Trp-Ala-Val-Gly-His-Leu-ψ-Tac-NH2 [RC-3950-II]”, which Ki (GRPR [2]) is on record?
Answer: Its Ki is 78 pM.
